{"source": "patent US20130108573A1", "about": "“Bile Acid Recycling Inhibitors for Treatment of Hypercholemia and Cholestatic Liver Disease” (Lumena Pharmaceuticals, Inc., priority 2011, published 2013)", "key": {"[1]": {"test": "Pediatric multiple-dose study of LUM-001: tolerability", "format": "in vivo, human", "settings": "2 weeks daily up to 5 mg q.d., 39 treated subjects aged 10-17", "source_text": "(39 treated subjects aged 10-17)."}, "serum bile acids": {"system": "serum bile acids", "test": "Human study of LUM001 lowering fasting and post-prandial peak serum bile acids in children and adolescents", "format": "in vivo", "settings": "for Fasting serum bile acid / Morning Post-prandial peak: after eight days of dosing", "procedure": "LUM001 has been administered to forty patients under the age of 18 years old. […] The drug was administered once-a-day (QD) in the morning for fourteen days. […] These doses are similar to those using to treat patients with cholestatic diseases.\nThe efficacy of LUM001 was determined by measuring total serum bile acids after eight days of dosing in children and adolescents under the age of eighteen. Thirty minutes before the next drug administration, at approximately 8 am in the morning, serum bile acid levels were measured. The child had refrained from food for 12 hours prior to this sample thus providing a fasted level of serum bile acid. After breakfast, serum bile acids were measured for up to the next 4 hours (8 am to noon) and the peak serum bile acid concentration noted."}, "Dog Serum Bile Acids [2]": {"system": "Dog Serum Bile Acids", "test": "Duration of action of LUM001 on dog serum bile acids, Method 1: two meals for extended SBA elevation", "format": "in vivo, beagle dogs", "settings": "for Serum Bile Acid, Mean: dogs n = 6, full meal at 0 hr, dosed at 1 hr, one-half meal at 4 hr", "procedure": "LUM001 was dissolved in water at concentrations that required the administration of 0.2 ml/kg of solution. Solutions were placed into gelatin capsules, Torpac Inc., size 13 Batch 594, East Hanover N.J., and administered orally.\nMale beagle dogs were obtained from Covance Research Products, Cumberland Va. or Marshall Farms USA, Inc., North Rose N.Y. A total of 20 dogs, 1 to 5 years old, 6.8 to 15.6 kg body weight, were used in these experiments. The dogs were conditioned to a 12 hour light/dark cycle and maintained on a feeding restriction of 1 hour per day access to food (Richman Standard Certified Canine Diet #5007, PMI Nutrition, Inc., St Louis Mo.) from 7 to 8 AM. They were trained to eat a special meal promptly within 20 minutes when presented (1 can. 397 g, Evanger's 100% Beef for Dogs, Evanger's Dog and Cat Food Co., Inc., Wheeling Ill., mixed with 50 g of sharp cheddar cheese.).\nSBA was measured by an enzymatic assay. SBA values are expressed as μg of total bile acids/ml of serum.\nIn dogs a single experimental meal produces a postprandial rise in SBA that is elevated to a peak at 1 hour after feeding and constant for an additional 3 hours. Previous experiments (2) indicate that LUM001 remains active for more than 4.5 hours. To measure the duration of action of an ASBT inhibitor using postprandial SBA levels requires that in the control situation the SBA levels remain elevated and constant for the entire period of compound action, or that the compound be administered long before the postprandial rise occurs, and remain active in the empty digestive system for long periods before feeding. Accordingly, two alternative methods were used to provide a window of constant SBA elevation that could be used to measure the duration of action of ASBT inhibitors.\nLUM001 was administered at 0.05 and 0.2 mg/kg, p.o. to 6 dogs 1 hr after feeding them a meal. At 4 hours after the meal was offered, a second meal of ½ the size of the first meal was offered. It too was consumed as promptly and thoroughly as the first meal, and provided an extended, constant SBA plateau. Blood samples for SBA measurement were taken at 0, 1, 1.5, 2, 4, 4.5, 5, 5.5, 6, 6.5, 7, 7.5 and 8 hours from the time of offering the first meal. Mean SBA levels were compared to the mean SBA level at 1 hour, each dog serving as its own control."}, "Dog Serum Bile Acids [3]": {"system": "Dog Serum Bile Acids", "settings": "dogs; previous experiments (2); cited from earlier work"}, "[4]": {"settings": "patient 401, drug dose 2.5 mg QD"}}, "note": "Marks after values point to notes of the source that are not given here."}
{"smiles": "CCCCC1(CCCC)CS(=O)(=O)c2ccc(N(C)C)cc2[C@@H](c2ccc(OCc3ccc(C[N+]45CCN(CC4)CC5)cc3)cc2)[C@H]1O", "note": "[LUM001]", "values": [{"measurement": "Tolerability", "setting": "[1]", "value": "well-tolerated"}, {"measurement": "Decrease of average fasting serum bile acid level vs placebo patients", "setting": "serum bile acids; LUM001 1-5 mg QD", "value": 24, "unit": "%"}, {"measurement": "Decrease of average post-prandial peak serum bile acid level vs placebo patients", "setting": "serum bile acids; LUM001 1-5 mg QD", "value": 23, "unit": "%"}, {"measurement": "Average fasting serum bile acid level of LUM001 treated patients", "setting": "serum bile acids; LUM001 1-5 mg QD, placebo patients 8.6 μmol/L", "value": 6.5, "unit": "µmol/L"}, {"measurement": "Average post-prandial peak serum bile acid level of LUM001 treated patients", "setting": "serum bile acids; LUM001 1-5 mg QD, placebo patients 11.9 μmol/L", "value": 9.2, "unit": "µmol/L"}, {"measurement": "Fasting serum bile acid", "setting": "serum bile acids; patient 304, drug dose 1 mg QD", "value": 5.6, "unit": "µmol/L"}, {"measurement": "Morning Post-prandial peak", "setting": "serum bile acids; patient 304, drug dose 1 mg QD", "value": 8.4, "unit": "µmol/L"}, {"measurement": "Fasting serum bile acid", "setting": "serum bile acids; patient 308, drug dose 1 mg QD", "value": 6.8, "unit": "µmol/L"}, {"measurement": "Morning Post-prandial peak", "setting": "serum bile acids; patient 308, drug dose 1 mg QD", "value": 9.3, "unit": "µmol/L"}, {"measurement": "Fasting serum bile acid", "setting": "serum bile acids; patient 309, drug dose 1 mg QD", "value": 6.9, "unit": "µmol/L"}, {"measurement": "Morning Post-prandial peak", "setting": "serum bile acids; patient 309, drug dose 1 mg QD", "value": 10.0, "unit": "µmol/L"}, {"measurement": "Fasting serum bile acid", "setting": "serum bile acids; [4]", "value": 6.0, "unit": "µmol/L"}, {"measurement": "Morning Post-prandial peak", "setting": "serum bile acids; [4]", "value": 6.8, "unit": "µmol/L"}, {"measurement": "Fasting serum bile acid", "setting": "serum bile acids; patient 510, drug dose 5 mg QD", "value": 7.4, "unit": "µmol/L"}, {"measurement": "Morning Post-prandial peak", "setting": "serum bile acids; patient 510, drug dose 5 mg QD", "value": 11.3, "unit": "µmol/L"}, {"measurement": "Serum Bile Acid, Mean", "setting": "Dog Serum Bile Acids [2]; 0.05 mg/kg p.o., time 0 hr", "value": 1.4, "unit": "µg/mL"}, {"measurement": "Serum Bile Acid, Mean", "setting": "Dog Serum Bile Acids [2]; 0.05 mg/kg p.o., time 1 hr", "value": 9.2, "unit": "µg/mL"}, {"measurement": "Serum Bile Acid, Mean", "setting": "Dog Serum Bile Acids [2]; 0.05 mg/kg p.o., time 1.5 hr", "value": 9.6, "unit": "µg/mL"}, {"measurement": "Serum Bile Acid, Mean", "setting": "Dog Serum Bile Acids [2]; 0.05 mg/kg p.o., time 2 hr", "value": 6.7, "unit": "µg/mL"}, {"measurement": "Serum Bile Acid, Mean", "setting": "Dog Serum Bile Acids [2]; 0.05 mg/kg p.o., time 4 hr", "value": "5.1* μg/ml"}, {"measurement": "Serum Bile Acid, Mean", "setting": "Dog Serum Bile Acids [2]; 0.05 mg/kg p.o., time 4.5 hr", "value": 6.4, "unit": "µg/mL"}, {"measurement": "Serum Bile Acid, Mean", "setting": "Dog Serum Bile Acids [2]; 0.05 mg/kg p.o., time 5 hr", "value": 7.0, "unit": "µg/mL"}, {"measurement": "Serum Bile Acid, Mean", "setting": "Dog Serum Bile Acids [2]; 0.05 mg/kg p.o., time 6 hr", "value": 7.0, "unit": "µg/mL"}, {"measurement": "Serum Bile Acid, Mean", "setting": "Dog Serum Bile Acids [2]; 0.05 mg/kg p.o., time 7 hr", "value": 7.4, "unit": "µg/mL"}, {"measurement": "Serum Bile Acid, Mean", "setting": "Dog Serum Bile Acids [2]; 0.05 mg/kg p.o., time 8 hr", "value": 6.5, "unit": "µg/mL"}, {"measurement": "Serum Bile Acid, Mean", "setting": "Dog Serum Bile Acids [2]; 0.2 mg/kg p.o., time 0 hr", "value": 1.3, "unit": "µg/mL"}, {"measurement": "Serum Bile Acid, Mean", "setting": "Dog Serum Bile Acids [2]; 0.2 mg/kg p.o., time 1 hr", "value": 11.1, "unit": "µg/mL"}, {"measurement": "Serum Bile Acid, Mean", "setting": "Dog Serum Bile Acids [2]; 0.2 mg/kg p.o., time 1.5 hr", "value": 9.1, "unit": "µg/mL"}, {"measurement": "Serum Bile Acid, Mean", "setting": "Dog Serum Bile Acids [2]; 0.2 mg/kg p.o., time 2 hr", "value": "3.8* μg/ml"}, {"measurement": "Serum Bile Acid, Mean", "setting": "Dog Serum Bile Acids [2]; 0.2 mg/kg p.o., time 4 hr", "value": "2.5* μg/ml"}, {"measurement": "Serum Bile Acid, Mean", "setting": "Dog Serum Bile Acids [2]; 0.2 mg/kg p.o., time 4.5 hr", "value": "3.3* μg/ml"}, {"measurement": "Serum Bile Acid, Mean", "setting": "Dog Serum Bile Acids [2]; 0.2 mg/kg p.o., time 5 hr", "value": "3.1* μg/ml"}, {"measurement": "Serum Bile Acid, Mean", "setting": "Dog Serum Bile Acids [2]; 0.2 mg/kg p.o., time 6 hr", "value": "3.6* μg/ml"}, {"measurement": "Serum Bile Acid, Mean", "setting": "Dog Serum Bile Acids [2]; 0.2 mg/kg p.o., time 7 hr", "value": "3.9* μg/ml"}, {"measurement": "Serum Bile Acid, Mean", "setting": "Dog Serum Bile Acids [2]; 0.2 mg/kg p.o., time 8 hr", "value": "5.8* μg/ml"}, {"measurement": "Time after dosing beyond which the significant SBA decrease was not sustained", "setting": "Dog Serum Bile Acids [2]; dogs, 0.05 mg/kg orally 1 hour after feeding", "value": "≤ 3", "unit": "h"}, {"measurement": "Time serum bile acid levels remained significantly lowered", "setting": "Dog Serum Bile Acids [2]; dogs, 0.2 mg/kg orally 1 hour after feeding", "value": "at least 6 hours"}, {"measurement": "Time LUM001 remains active", "setting": "Dog Serum Bile Acids [3]", "value": "more than 4.5 hours"}]}
